How the values were obtained:
[1] = test system: gram-positive bacteria, including Streptococcus agalactiae, Enterococcus faecalis, Staphylococcus epidermidis, and prominent MRSA strains; assay: Growth and biofilm formation of gram-positive strains, crystal violet stain quantified at 600 nm (Example 2, FIG. 3); type: cell-based; conditions: 30 μM, overnight, 35±2° C.; for growth of gram-positive bacteria, including MRSA: 2 mL broth; for biofilm formation of gram-positive bacteria, including MRSA: crystal violet stain solubilized, 600 nm
Description: (§1) The efficacy of the compounds were again tested against different strains of gram-positive bacteria, including Streptococcus agalactiae, Enterococcus faecalis, Staphylococcus epidermidis, and prominent MRSA (hospital-acquired and community-acquired) strains. Broth inoculum was prepared from 18-24 hours old colonies grown on standard agar plates. Approximately four of the fresh colonies were swiped with a sterile cotton Q-tip and then suspended in saline by immersion and light swirling. The turbidity was adjusted to equal that of a 0.5 McFarland turbidity standard using a spectrophotometer (600 nm). The amount corresponded to about 1.5×10^8 CFU/mL, where CFU stands for colony-forming units, and is equivalent to an absorbance at 600 nm equal to 0.132 or a percentage transmission equal to 74.3. […] Sterile 4 mL polystyrene tubes (12×75 mm) with caps were used for this purpose.
The bacteria were allowed to incubate overnight in 2 mL broth at 35±2° C. in the presence or absence of various experimental compounds or antibiotics. The amount of biofilm was visualized qualitatively, then stained with crystal violet. Biofilm attached to the side of the tube was stained purple. After staining, the tubes were decanted and rinsed, leaving stained biofilm adhering to the tubes. Next, the stain was solubilized and mixed with ethanol (EtOH) or dimethylsulfoxide (DMSO). The turbidity of the so lubilized stain, or lack thereof, was then quantified in a spectrophotometer (600 nm). In the broth only sample, no bacteria were added. In the negative controls, no compounds were added. The vehicle controls were made up of the appropriate dilution of the different solvent used to dissolve the experimental compounds, including ethanol (EtOH) or dimethylsulfoxide (DMSO). The experimental compounds tested included 30 μM of CP55,940, 30 μM of O-2050, 30 μM of linoleyl ethanolamide, 30 μM of no ladin ether, and 30 μM of anandamide (natural product 2). High concentrations of silver nitrate (1000 μM) and vancomycin (50 μg/mL) served as positive antimicrobial controls.

mammalian CB2 receptors = mammalian CB2 receptors (Homo sapiens, UniProt P34972); conditions: cited from earlier work
Sequence of mammalian CB2 receptors (P34972 whole entry): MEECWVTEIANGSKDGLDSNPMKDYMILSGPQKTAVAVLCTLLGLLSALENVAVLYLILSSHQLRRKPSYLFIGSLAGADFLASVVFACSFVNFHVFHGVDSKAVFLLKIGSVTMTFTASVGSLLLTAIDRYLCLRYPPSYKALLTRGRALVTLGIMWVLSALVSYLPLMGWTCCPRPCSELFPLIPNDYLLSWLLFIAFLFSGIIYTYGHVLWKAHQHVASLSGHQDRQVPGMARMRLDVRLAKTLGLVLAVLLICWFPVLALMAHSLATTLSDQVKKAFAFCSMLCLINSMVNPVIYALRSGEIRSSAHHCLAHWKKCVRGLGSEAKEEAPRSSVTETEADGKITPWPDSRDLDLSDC

mammalian CB1 receptors = mammalian CB1 receptors (Homo sapiens, UniProt P21554); conditions: cited from earlier work
Sequence of mammalian CB1 receptors (P21554 whole entry): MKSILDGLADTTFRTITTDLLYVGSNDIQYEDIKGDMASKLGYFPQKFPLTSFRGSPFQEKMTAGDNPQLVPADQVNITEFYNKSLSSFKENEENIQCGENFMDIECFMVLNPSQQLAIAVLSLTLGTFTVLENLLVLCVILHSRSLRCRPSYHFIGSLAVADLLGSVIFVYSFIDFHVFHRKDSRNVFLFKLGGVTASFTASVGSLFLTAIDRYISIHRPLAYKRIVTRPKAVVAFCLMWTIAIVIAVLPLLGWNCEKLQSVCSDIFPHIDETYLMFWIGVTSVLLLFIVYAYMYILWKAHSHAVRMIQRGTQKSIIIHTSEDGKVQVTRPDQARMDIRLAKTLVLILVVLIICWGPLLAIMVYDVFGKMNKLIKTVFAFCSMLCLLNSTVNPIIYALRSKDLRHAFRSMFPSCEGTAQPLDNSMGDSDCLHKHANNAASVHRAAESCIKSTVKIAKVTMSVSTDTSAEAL

MRSA bacteria = assay: MRSA bacterial growth and biofilm formation in broth tubes, crystal violet stain (Example 1, FIG. 2); type: cell-based, Methicillin-resistant Staphylococcus aureus; conditions: about 5000 CFU/mL, 16-20 hours, 2 mL broth, 35±2° C., CP55,940 and LEA at 30 μm; for MRSA biofilm formation: crystal violet, qualitative
Description: as §1, with “broth” for “efficacy of the compounds were again tested against different strains of gram-positive bacteria, including Streptococcus agalactiae, Enterococcus faecalis, Staphylococcus epidermidis, and prominent MRSA (hospital-acquired and community-acquired) strains. Broth”
MRSA bacteria (about 5000 CFU/mL) were allowed to grow for 16-20 hours in 2 mL broth at 35±2° C. in the presence or absence of various experimental compounds or antibiotics. The amount of biofilm was visualized qualitatively after being stained with crystal violet. Biofilm attached to the side of the tube was stained purple. The compounds CP55,940, LEA, and capsaicin were all tested at 30 μm. In the negative control, no compounds were added. The vehicle controls were made up of the appropriate dilution of the different solvent used to dissolve the experimental compounds, including methanol (MeOH), ethanol (EtOH) or dimethylsulfoxide (DMSO). The experimental compounds tested included CP55,940, noladin ether, O-2050, and linoleyl ethanolamide. High concentrations of the antibiotics zeocin and ampicillin served as positive antimicrobial controls. […] The no bacteria group contained only media and no bacteria, and served as another control.

| Compound | growth of gram-positive bacteria, including MRSA [1] | biofilm formation of gram-positive bacteria, including MRSA [1] | affinity for CB2 receptor (mammalian CB2 receptors) | affinity for CB1 receptor (mammalian CB1 receptors) | MRSA growth (MRSA bacteria) | MRSA biofilm formation (MRSA bacteria) |
| --- | --- | --- | --- | --- | --- | --- |
| CCCCCCC(C)(C)c1ccc([C@@H]2C[C@H](O)CC[C@H]2CCCO)c(O)c1 [CP55,940, (−)-cis-3-[2-Hydroxy-4-(1,1-dimethylheptyl)phenyl]-tran s-4-(3-hydroxypropyl)cyclohexanol] | prevent | prevent | high affinity | high affinity | prevent | prevent |
| CC1=CC[C@@H]2[C@@H](C1)c1c(O)cc(CC#CCCCNS(C)(=O)=O)cc1OC2(C)C [Compound O-2050] | prevent | prevent |  |  | prevent | prevent |
| CN[C@H]1C[C@@H](N)[C@H](O)[C@@H](O[C@@H]2O[C@H](CO)[C@H](O)[C@@H]3OC4(O[C@H]23)O[C@H]([C@@H](N)CO)[C@H](O)[C@H](O)[C@H]4O)[C@@H]1O (stereo partly shown) [Hydromycin B, reference compound] |  |  |  |  | Relatively ineffective |  |
| CCCCC/C=C\C/C=C\CCCCCCCC(=O)NCCO [LEA, N-(2-hydroxyethyl)-9Z,12Z-octadecadienamide] | prevent | prevent | poor affinity | poor affinity | prevent | prevent |
| CCCCC/C=C\C/C=C\C/C=C\C/C=C\CCCCOC(CO)CO [noladin ether, 2-[(5Z,8Z,11Z,14Z)-eicosatetraenyloxy]-1,3-propanediol] |  |  |  |  | prevent | prevent |
